The species named for data set [1] is Mus musculus. The experiment in a line: Toxicity in NMRI mouse assessed as irritant dose 50 causing ear redness after 5 hours assessed per ear. The format is organism-based. Particulars: in vivo, topical_or_ocular.
The species named for data set [2] is Mus musculus. Put plainly: Toxicity in NMRI mouse assessed as irritant dose 50 causing ear redness after 24 hours assessed per ear. The format is organism-based. Particulars: in vivo.

A value given as a limit tells only on which side of the number the result lay.

In the case of `COC(=O)Cc1ccc(O)c(OC)c1`, the Activity is reported as 25 nmol in data set [1] and more than 100 nmol in data set [2].
For the molecule `C=C(C)[C@]12C[C@@H](C)[C@@]34O[C@](C)(O[C@@H]1[C@@H]3C=C(COC(=O)Cc1cc(OC)cc(OC)c1)C[C@]1(O)C(=O)C(C)=C[C@@H]41)O2`, the Activity in data set [1] is on record as 2.6 ×10⁻² nmol; in data set [2], more than 5 nmol.
The matching figures for `C=C(C)[C@]12C[C@@H](C)[C@@]34O[C@](Cc5ccccc5)(O[C@@H]1[C@@H]3C=C(COC(=O)CCCCC)C[C@]1(O)C(=O)C(C)=C[C@@H]41)O2`: 8.9 ×10⁻² nmol and more than 10 nmol.
With `C=C(C)[C@]12C[C@@H](C)[C@@]34O[C@](CCCCCCCCCCCCC)(O[C@@H]1[C@@H]3C=C(CO)C[C@]1(O)C(=O)C(C)=C[C@@H]41)O2`, the Activity in data set [1] was more than 30 nmol; in data set [2], 0.8 nmol.
The matching figures for `C=C(C)[C@]12C[C@@H](C)[C@@]34O[C@](Cc5ccccc5)(O[C@@H]1[C@@H]3C=C(COC(=O)Cc1cc(OC)cc(OC)c1)C[C@]1(O)C(=O)C(C)=C[C@@H]41)O2`: 6.2 ×10⁻⁴ nmol and more than 20 nmol.
On the same counts, the results for `C=C(C)[C@]12C[C@@H](C)[C@@]34O[C@](Cc5ccccc5)(O[C@@H]1[C@@H]3C=C(CO)C[C@]1(O)C(=O)C(C)=C[C@@H]41)O2` are 1 nmol and more than 20 nmol.
The matching figures for `C=C(C)[C@]1(O)C[C@@H](C)[C@@]2(O)[C@@H](C=C(COC(=O)Cc3ccccc3)C[C@]3(O)C(=O)C(C)=C[C@@H]23)[C@H]1O`: more than 100 nmol and more than 100 nmol.
Regarding `C=C(C)[C@]12C[C@@H](C)[C@@]34O[C@](Cc5ccccc5)(O[C@@H]1[C@@H]3C=C(COC(C)=O)C[C@]1(O)C(=O)C(C)=C[C@@H]41)O2`, the Activity in data set [1] and in data set [2] was more than 10 nmol in each case.
As for `C=C(C)[C@]12C[C@@H](C)[C@@]34O[C@](CCCCCCCCCCCCC)(O[C@@H]1[C@@H]3C=C(COC(=O)Cc1cc(OC)cc(OC)c1)C[C@]1(O)C(=O)C(C)=C[C@@H]41)O2`, the Activity in data set [1] and in data set [2] was more than 5 nmol throughout.
With `C=C(C)[C@]12C[C@@H](C)[C@@]34O[C@](CCCCCCCCCCCCC)(O[C@@H]1[C@@H]3C=C(COC(=O)CCCCCCCCCCCCC)C[C@]1(O)C(=O)C(C)=C[C@@H]41)O2`, the Activity in data set [1] and in data set [2] was more than 60 nmol throughout.
In the case of `C=C(C)[C@]12C[C@@H](C)[C@@]34O[C@](Cc5ccccc5)(O[C@@H]1[C@@H]3C=C(COC(=O)Cc1ccccc1)C[C@]1(O)C(=O)C(C)=C[C@@H]41)O2`, the Activity was 1.7 ×10⁻³ nmol in data set [1] and more than 10 nmol in data set [2].
Take `C=C(C)[C@]12C[C@@H](C)[C@@]34O[C@](Cc5ccccc5)(O[C@@H]1[C@@H]3C=C(COC(=O)c1ccccc1)C[C@]1(O)C(=O)C(C)=C[C@@H]41)O2`: the figures for the Activity in data set [1] and in data set [2] were 1.2 ×10⁻² nmol and more than 10 nmol, respectively.
The matching figures for `C=C(C)[C@]12C[C@@H](C)[C@@]34O[C@](C)(O[C@@H]1[C@@H]3C=C(CO)C[C@]1(O)C(=O)C(C)=C[C@@H]41)O2`: more than 100 nmol and 12.9 nmol.
The matching figures for `C=C(C)[C@]12C[C@@H](C)[C@@]34O[C@](Cc5ccccc5)(O[C@@H]1[C@@H]3C=C(COC(=O)Cc1ccc(OC)c(OC)c1)C[C@]1(O)C(=O)C(C)=C[C@@H]41)O2` [RESINIFERATOXIN METHYL ETHER]: 4.7 ×10⁻⁴ nmol and more than 20 nmol.
For the molecule `C=C(C)[C@]12C[C@@H](C)[C@@]34O[C@](Cc5ccccc5)(O[C@@H]1[C@@H]3C=C(COC(=O)Cc1ccc(O)c(OC)c1)C[C@]1(O)C(=O)C(C)=C[C@@H]41)O2` [RESINIFERATOXIN], the Activity in data set [1] is listed as 1.6 ×10⁻⁵ nmol; in data set [2], more than 20 nmol.
The matching figures for `C=C(C)[C@]1(O)C[C@@H](C)[C@@]2(O)[C@@H](C=C(CO)C[C@]3(O)C(=O)C(C)=C[C@@H]23)[C@H]1O` [RESINIFERONOL]: more than 100 nmol and more than 100 nmol.

Source of the values: ChEMBL document CHEMBL1151392, “Structure-activity relations of polyfunctional diterpenes of the daphnane type. I. Revised structure for resiniferatoxin and structure-activity relations of resiniferonol and some of its esters” (J Nat Prod, 1982).
